Reference: US20200031778A1, “NOVEL 5-SUBSTITUTED IMIDAZOLYLMETHYL DERIVATIVES” (Bayer CropScience Aktiengesellschaft, priority 2016, published 2020)

Legend:
[1] = Log P by HPLC on reversed phase columns (EEC directive 79/831 Annex V.A8; methods [a], [b], [c]); format: physicochemical; details: reversed phase HPLC column; method [a]: LC-UV, acidic range, 0.1% formic acid in water and acetonitrile as eluent (linear gradient from 10% to 95% acetonitrile)
In short: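 Log P derived from retention times, interpolated linearly between bracketing straight-chain alkan-2-ones (3–16 carbons) of known Log P. Eluents ran acetonitrile 10% to 95% against water with 0.1% formic acid ([a], acidic), 0.001 M ammonium acetate ([b], neutral) or 0.1% phosphoric acid ([c], acidic); UV read-out.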

Puccinia recondita = assay: Example IX-A: in vivo preventive test on Puccinia recondita (brown rust on wheat); details: 264 h, compounds of formula IX, 500 ppm of active ingredient, wheat plants, preventive spray, evaluated 11 days after inoculation, read-out: efficacy
Procedure: Example IX-A: In Vivo Preventive Test on Puccinia Recondita (Brown Rust on Wheat)
(§1) The active ingredients are made soluble and homogenized in a mixture of Dimethyl sulfoxide/Acetone/Tween® 80 and then diluted in water to the desired concentration.
The young plants of wheat are treated by spraying the active ingredient prepared as described above. Control plants are treated only with an aqueous solution of Acetone/Dimethyl sulfoxide/Tween® 80.
After 24 hours, the plants are contaminated by spraying the leaves with an aqueous suspension of Puccinia recondita spores. The contaminated wheat plants are incubated for 24 hours at 20° C. and at 100% relative humidity and then for 10 days at 20° C. and at 70-80% relative humidity.
(§2) The test is evaluated 11 days after the inoculation. 0% means an efficacy which corresponds to that of the control plants while an efficacy of 100% means that no disease is observed.

Septoria tritici = assay: Example IX-B: in vivo preventive test on Septoria tritici (leaf spot on wheat); details: Zymoseptoria tritici, 576 h; compounds of formula IX; 500 ppm of active ingredient; wheat plants, preventive spray; evaluated 24 days after inoculation; read-out: efficacy
In short: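 Wheat seedlings sprayed preventively with compound dissolved in DMSO/acetone/Tween 80 and diluted in water; solvent-only controls. Spore suspension of S. tritici sprayed 24 h later; 72 h at 18 °C/100% RH, then 21 days at 20 °C/90% RH. Efficacy scored 24 days post-inoculation, 0% = control, 100% = no disease.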

Sphaerotheca fuliginea = assay: Example IX-C: in vivo preventive test on Sphaerotheca fuliginea (powdery mildew on cucurbits); details: Podosphaera fuliginea, 360 h; compounds of formula IX; 500 ppm of active ingredient; gherkin plants, preventive spray; evaluated 15 days after inoculation; read-out: efficacy
In short: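 Young gherkin plants sprayed with compound in DMSO/acetone/Tween 80 diluted in water, then inoculated 24 h later with Sphaerotheca fuliginea spores. Kept 72 h at 18 °C/100% RH, then 12 days at 20 °C/70-80% RH; efficacy scored 15 days post-inoculation, 0% = control, 100% = no disease.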

Uromyces appendiculatus = assay: Example IX-D: in vivo preventive test on Uromyces appendiculatus (bean rust); details: 264 h, compounds of formula IX, 500 ppm of active ingredient, bean plants, preventive spray, evaluated 11 days after inoculation, read-out: efficacy
Procedure: Example IX-D: In Vivo Preventive Test on Uromyces Appendiculatus (Bean Rust)
as §1
The young plants of bean are treated by spraying the active ingredient prepared as described above. Control plants are treated only with an aqueous solution of Acetone/Dimethyl sulfoxide/Tween® 80.
After 24 hours, the plants are contaminated by spraying the leaves with an aqueous suspension of Uromyces appendiculatus spores. The contaminated bean plants are incubated for 24 hours at 20° C. and at 100% relative humidity and then for 10 days at 20° C. and at 70-80% relative humidity.
as §2
control plants while an efficacy of 100% means that no disease was observed.

SMILES	chromatographic logP [1]	pest or weed control at 500 ppm (Puccinia recondita)	pest or weed control at 500 ppm (Septoria tritici)	pest or weed control at 500 ppm (Sphaerotheca fuliginea)	pest or weed control at 500 ppm (Uromyces appendiculatus)
O=C(Cn1cncc1Cl)c1ccc(Oc2ccc(C(F)(F)F)cc2)cc1Cl [IX-14]	3.33	90 to 100%	90 to 100%	90 to 100%	90 to 100%
N#Cc1cncn1CC(=O)c1ccc(Oc2ccc(Cl)cc2)cc1F [IX-64]	3.27	90 to 100%	90 to 100%	90 to 100%	90 to 100%
O=C(Cn1cncc1F)c1cnc(Oc2ccc(Br)cc2)cc1C(F)(F)F [IX-82, 1-[6-(4-bromophenoxy)-4-(trifluoromethyl)-3-pyridyl]-2-(5-fluoroimidazol-1-yl)ethanone]	2.73	70 to 79%	90 to 100%	90 to 100%	90 to 100%
N#Cc1cncn1CC(=O)c1ccc(Oc2ccc(Cl)nc2)cc1Cl [IX-60]	2.62	80 to 89%	90 to 100%	90 to 100%	90 to 100%
O=C(Cn1cncc1Br)c1ccc(Oc2ccc(OC(F)(F)F)cc2)cc1Br [IX-06]	3.53	80 to 89%	90 to 100%	90 to 100%	70 to 79%
N#Cc1cncn1CC(=O)c1ccc(Oc2ccc(Cl)cc2)cc1C(F)F [IX-75]	3.39	90 to 100%	90 to 100%	90 to 100%	90 to 100%
O=C(Cn1cncc1F)c1cnc(Oc2ccc(Cl)cc2)cc1Cl [IX-94]	2.32	80 to 89%	90 to 100%	90 to 100%	90 to 100%
O=C(Cn1cncc1Br)c1ccc(Oc2ccc(Cl)cc2)cc1Br [IX-33]	3.13	90 to 100%	90 to 100%	90 to 100%	90 to 100%
N#Cc1cncn1CC(=O)c1ccc(Oc2ccc(S(F)(F)(F)(F)F)cc2)nc1Cl [IX-74]	3.42	90 to 100%	90 to 100%	90 to 100%	90 to 100%
O=C(Cn1cncc1Br)c1ccc(Oc2ccc(I)cc2)cc1Cl [IX-32]	3.35	80 to 89%	90 to 100%	90 to 100%	90 to 100%
N#Cc1cncn1CC(=O)c1cnc(Oc2ccc(Cl)cc2)cc1C(F)(F)F [IX-109]	3.17	70 to 79%	90 to 100%	90 to 100%	90 to 100%
O=C(Cn1cncc1Br)c1ccc(Oc2ccc(Cl)cc2)cc1Cl [IX-18]	3.07	90 to 100%	90 to 100%	90 to 100%	90 to 100%
N#Cc1cncn1CC(=O)c1ccc(Oc2ccc(Cl)cc2)nc1C(F)(F)F [IX-107]	3.33	90 to 100%	90 to 100%	90 to 100%	80 to 89%
O=C(Cn1cncc1Cl)c1cnc(Oc2ccc(Cl)cc2)cc1C(F)(F)F [IX-43]	3.09	80 to 89%	90 to 100%	90 to 100%	90 to 100%
N#Cc1cncn1CC(=O)c1ccc(Oc2ccc(Br)cc2)cc1Cl [IX-58, 1-[4-(4-bromophenoxy)-2-chloro-phenyl]-2-(5-cyanoimidazol-1-yl)ethanone]	3.55	90 to 100%	90 to 100%	90 to 100%	90 to 100%
